Results published in ChEMBL document CHEMBL3580570, “Discovery and SAR study of a sulfonamide hydroxamic acid inhibitor for the botulinum neurotoxin serotype A light chain” (Medchemcomm, 2014).

These compounds were tested against Botulinum neurotoxin type A (Clostridium botulinum, UniProt P0DPI0) (assay: Competitive inhibition of Clostridium botulinum BoNT/A LC using SNAPtide as substrate after 10 mins by FRET assay).
Botulinum neurotoxin type A, sequence (P0DPI0 2-448 limits assumed): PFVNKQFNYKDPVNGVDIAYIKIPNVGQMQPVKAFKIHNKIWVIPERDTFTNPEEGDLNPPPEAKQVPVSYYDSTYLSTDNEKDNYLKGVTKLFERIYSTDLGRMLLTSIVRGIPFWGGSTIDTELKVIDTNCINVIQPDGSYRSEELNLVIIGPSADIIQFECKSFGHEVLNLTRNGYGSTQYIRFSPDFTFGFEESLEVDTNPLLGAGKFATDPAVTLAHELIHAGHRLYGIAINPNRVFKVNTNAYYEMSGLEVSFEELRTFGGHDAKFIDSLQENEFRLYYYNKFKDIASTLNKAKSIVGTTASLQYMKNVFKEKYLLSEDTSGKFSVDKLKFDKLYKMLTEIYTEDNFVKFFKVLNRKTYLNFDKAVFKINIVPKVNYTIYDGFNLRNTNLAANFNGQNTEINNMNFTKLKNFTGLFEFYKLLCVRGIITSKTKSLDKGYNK

Compound | Ki | IC50
O=C(NO)[C@@H]1C[C@@H](Oc2ccc(Cl)cc2)CN1S(=O)(=O)c1ccc(Cl)cc1 | 6.3 µM | –
CC[C@H](C)[C@H](NS(=O)(=O)c1ccc(-c2ccc(F)cc2)cc1)C(=O)NO | – | 9.6 µM
CC[C@H](C)[C@H](NS(=O)(=O)c1ccc(-c2ccc(NC(C)=O)cc2)cc1)C(=O)NO | – | > 100 µM
CC[C@H](C)[C@H](NS(=O)(=O)c1ccc(-c2ccc(OC)cc2)cc1)C(=O)NO | – | > 100 µM
CC[C@H](C)[C@H](NS(=O)(=O)c1ccc(-c2ccccc2)cc1)C(=O)NO | – | 27.7 µM
CC[C@H](C)[C@H](NS(=O)(=O)c1cccc(-c2ccc(Cl)cc2)c1)C(=O)NO | – | 8.14 µM
CC[C@H](C)[C@H](NS(=O)(=O)c1ccc2c(c1)OCCO2)C(=O)NO | – | 20.7 µM
CC[C@H](C)[C@H](NS(=O)(=O)c1ccccc1)C(=O)NO | – | > 100 µM
CC[C@H](C)[C@@H](NS(=O)(=O)c1ccc(-c2ccc(Cl)cc2)cc1)C(=O)NO | – | 11.8 µM
CC[C@@H](C)[C@H](NS(=O)(=O)c1ccc(-c2ccc(Cl)cc2)cc1)C(=O)NO | – | 41.8 µM
CC[C@@H](C)[C@@H](NS(=O)(=O)c1ccc(-c2ccc(Cl)cc2)cc1)C(=O)NO | – | 6.91 µM
CC(C)C[C@@H](NS(=O)(=O)c1ccc(-c2ccc(Cl)cc2)cc1)C(=O)NO | – | 25.9 µM
CC(C)C[C@H](NS(=O)(=O)c1ccc(-c2ccc(Cl)cc2)cc1)C(=O)NO | – | 24.8 µM
CC(C)[C@H](NS(=O)(=O)c1ccc(-c2ccc(Cl)cc2)cc1)C(=O)NO | – | 38.2 µM
O=C(NO)[C@H](Cc1ccccc1)NS(=O)(=O)c1ccc(-c2ccc(Cl)cc2)cc1 | – | > 100 µM
O=C(NO)[C@@H]1CCCN1S(=O)(=O)c1ccc(-c2ccc(Cl)cc2)cc1 | – | > 100 µM
CC[C@H](C)[C@H](NS(=O)(=O)c1ccc(-c2ccc(Cl)cc2)cc1)C(=O)O | – | > 100 µM
CC[C@H](C)[C@H](NS(=O)(=O)c1ccc(-c2ccc(Cl)cc2)cc1)C(N)=O | – | > 100 µM
CC[C@H](C)[C@H](NS(=O)(=O)c1ccc(-c2ccc(Cl)cc2)cc1)C(=O)NO | – | 10.1 µM
CC[C@H](C)[C@H](NS(=O)(=O)c1ccc(-c2ccc(C)cc2)cc1)C(=O)NO | – | > 100 µM
CC[C@@H](C)[C@@H](NS(=O)(=O)c1cccc(-c2ccc(Cl)cc2)c1)C(=O)NO | – | 0.95 µM
